Reference: patent publication US20250214977A1, “STAT6 INHIBITORS AND USES THEREOF” (Kymera Therapeutics, Inc., priority 2024, published 2025)

What follows are compounds tested on Phosphorylation of STAT6 in human A549 cells (assay: Phosphorylated STAT6 (pSTAT6) flow cytometry assay in human A549 cells). Settings: read-out: STAT6 IL4 pSTAT6 assay in A549 cells: Average IC50.
Assay type: cell-based
From the text: Example 3. Phosphorylated STAT6 (pSTAT6) Flow Cytometry Assay in Human A549 Cells
Phosphorylation of STAT6 in human A549 cells was quantitatively measured using flow cytometry technology.

Row | IC50 | Compound
1 | 100 to 1000 nM | COc1ccccc1-c1cc(C2=CCCN(C(=O)CCn3ccnn3)C2)c(F)c2[nH]c(C(=O)N3CCN(c4ncc(C5CC5)cc4OC4CC4)CC3)cc12 [Example I-413]
2 | > 100000 nM | COc1cccnc1N1CCN(C(=O)c2cc3c(-c4ccc5ccccc5c4OC)cc(C4=CCCN(C(=O)CCn5ccnn5)C4)c(F)c3[nH]2)CC1 [Example I-396]
3 | < 100 nM | COc1ccccc1-c1cc(C2=CCCN(C(=O)CCn3ccnn3)C2)c(F)c2[nH]c(C(=O)N3CCN(c4cn5ccnc5cc4C)CC3)cc12 [Example I-915]
4 | < 100 nM | COc1ccccc1-c1cc(C2=CCCN(C(=O)CCn3ccnn3)C2)c(F)c2[nH]c(C(=O)N3CCN(c4ccc5n[nH]cc5c4)CC3)cc12 [Example I-859]
5 | < 100 nM | COc1cc(F)cnc1N1CCN(C(=O)c2cc3c(-c4cc(C5(C#N)CC5)ccc4F)cc(C4=CCCN(C(=O)CCn5ccnn5)C4)c(F)c3[nH]2)CC1 [Example I-650]
6 | < 100 nM | COc1cccnc1N1CCN(C(=O)c2cc3c(N4CCCOCC4)cc(C4=CCCN(C(=O)CCn5ccnn5)C4)c(F)c3[nH]2)CC1 [Example I-592]
7 | 100 to 1000 nM | CC(=O)N1CCC=C(c2cc(-c3ccc(F)cc3O)c3cc(C(=O)N(C)C)[nH]c3c2F)C1 [Example I-891]
8 | < 100 nM | COc1cccc(N2CCN(C(=O)c3cc4c(-c5ccccc5OC)cc(C5=CCCN(C(=O)CCn6ccnn6)C5)c(F)c4[nH]3)CC2)n1 [Example I-359]
9 | < 100 nM | COc1cc(Cl)cnc1N1CCN(C(=O)c2cc3c(-c4cccnc4OC)cc(C4=CCCN(C(=O)CCn5ccnn5)C4)c(F)c3[nH]2)CC1 [Example I-460]
10 | 100 to 1000 nM | CN(C)C(=O)c1cc2ccc(C3=CCCN(C(=O)CCc4nncs4)C3)cc2[nH]1 [Example I-828]
11 | < 100 nM | COc1ccccc1-c1cc(C2=CCCN(C(=O)CCn3ccnn3)C2)c(F)c2[nH]c(C(=O)N3CCN(c4ccnc(Nc5ccc(C#N)cc5)n4)CC3)cc12 [Example I-948]
12 | > 100000 nM | CCn1ncc2c1CN(C(=O)c1cc(C3CC3)c3c(c1)cc(C1=CCCN(C(=O)CCn4ccnn4)C1)n3CC1CC1)C2 [Example I-768]
13 | < 100 nM | CN(C)C(=O)c1cc2cc(C3=CCCN(C(=O)CCn4ccnn4)C3)cc(NCC3CC(F)(F)C3)c2o1 [Example I-873]
14 | 100 to 1000 nM | COc1cc(Cl)cnc1N1CCN(C(=O)c2cc3c(-c4cc(F)cc(F)c4OC)cc(C4=CCCN(C(=O)CCn5ccnn5)C4)c(F)c3[nH]2)CC1 [Example I-462]
15 | 100 to 1000 nM | Cc1cnnn1CCC(=O)N1CCC=C(c2ccc3cc(C(=O)N(C)C)[nH]c3c2)C1 [Example I-827]
16 | < 100 nM | CCc1nc(C)ccc1-c1cc(C(=O)N2CCN(c3ncc(F)cc3OC)CC2)cc2cc(C3=CCCN(C(=O)CCc4nccs4)C3)n(CC3CC3)c12 [Example I-523]
17 | < 100 nM | COc1cc(F)cnc1N1CCN(C(=O)c2cc3c(-c4cc(O)cc5ccccc45)cc(C4=CCCN(C(=O)CCn5ccnn5)C4)c(F)c3[nH]2)CC1 [Example I-659]
18 | < 100 nM | COc1cc(F)cnc1N1CCN(C(=O)c2cc3c(-c4cccc(OC(C)C)c4)cc(C4=CCCN(C(=O)CCn5ccnn5)C4)c(F)c3[nH]2)CC1 [Example I-638]
19 | > 100000 nM | COc1cnccc1-c1cc(C2=CCCN(C(C)=O)C2)c(F)c2[nH]c(C(=O)N3CCN(c4ncc(F)cc4OC)CC3)cc12 [Example I-697]
20 | 100 to 1000 nM | CCCN(C)C(=O)c1cc2cc(C3=CCCN(C(=O)CCn4ccnn4)C3)ccc2o1 [Example I-817]
21 | < 100 nM | COc1ccccc1-c1cc(C2=CCCN(C(=O)CCn3ccnn3)C2)c(F)c2[nH]c(C(=O)N3CCN(c4cnc5ncccn45)CC3)cc12 [Example I-1017]
22 | < 100 nM | COc1cccnc1N1CCN(C(=O)c2cc3c(-c4cn(C)nc4C)cc(C4=CCCN(C(=O)CCn5ccnn5)C4)c(F)c3[nH]2)CC1 [Example I-574]
23 | 1000 to 10000 nM | COc1ccccc1-c1cc(C2=CCCN(C(C)=O)C2)c(F)c2sc(C(=O)N3CCN(c4ncccc4OC)CC3)cc12 [Example I-1106]
24 | 100 to 1000 nM | COc1cc(F)ccc1-c1cc(C2=CCCN(C(=O)CCn3ccnn3)C2)c(F)c2[nH]c(C(=O)N3CCN(c4ccc(F)c(OC)n4)CC3)cc12 [Example I-1107]
25 | 1000 to 10000 nM | COc1cc(C(F)(F)F)cnc1N1CCN(C(=O)c2cc3c(-c4cnc5ccccc5c4OC)cc(C4=CCCN(C(=O)CCn5ccnn5)C4)c(F)c3[nH]2)CC1 [Example I-446]
26 | 100 to 1000 nM | COc1ccccc1-c1cc(C2=CCCN(C(=O)C(C)C)C2)c(F)c2cc(C(=O)N(C)C)oc12 [Example I-1190]
27 | 1000 to 10000 nM | COc1cc(F)cnc1N1CCN(C(=O)c2cc(-c3cccnc3C3CC3)c3[nH]c(C4CCCN(C(=O)CCn5ccnn5)C4)cc3c2)CC1 (centres unmarked) [Example I-1204]
28 | < 100 nM | COc1ccccc1-c1cc(C2=CCCN(C(=O)CCn3ccnn3)C2)c(F)c2[nH]c(C(=O)N3CCO[C@H](C)C3)cc12 [Example I-1007]

Row | IC50 | Compound
29 | 100 to 1000 nM | CN(C)C(=O)c1cc2ccc(C3=CCCN(C(=O)C4Cc5ccccc5CN4C=O)C3)cc2[nH]1 (centres unmarked) [Example I-822]
30 | 100 to 1000 nM | CN(C)C(=O)c1cc2cc(C3=CCCN(C(=O)C(Cn4ccnn4)c4cccc(C#N)c4)C3)ccc2o1 (centres unmarked) [Example I-835]
31 | < 100 nM | CCC1=C(c2cc(C3=CCCN(C(=O)CCn4ccnn4)C3)c(F)c3[nH]c(C(=O)N4CCN(c5ncc(F)cc5OC)CC4)cc23)CCNC1 [Example I-731]
32 | < 100 nM | CCCN1CCN(C(=O)c2cc3c(-c4ccccc4OC)cc(C4=CCCN(C(=O)CCn5ccnn5)C4)c(F)c3[nH]2)C[C@@H]1C [Example I-997]
33 | < 100 nM | COc1cc(F)cnc1N1CCN(C(=O)c2cc3c(-c4ccc(C)c5ncccc45)cc(C4=CCCN(C(=O)CCn5ccnn5)C4)c(F)c3[nH]2)CC1 [Example I-635]
34 | < 100 nM | COc1ccccc1-c1cc(C2=CCCN(C(=O)CCn3ccnn3)C2)c(F)c2[nH]c(C(=O)N3Cc4cnn(C)c4C3)cc12 [Example I-464]
35 | < 100 nM | CCC/C=C/c1cc(C2=CCCN(C(=O)CCn3ccnn3)C2)c(F)c2[nH]c(C(=O)N3CCN(c4ncc(F)cc4OC)CC3)cc12 [Example I-677]
36 | < 100 nM | COc1ccccc1-c1cc(C2=CCCN(C(=O)CCn3ccnn3)C2)c(F)c2[nH]c(C(=O)N3CCN(c4scnc4C)CC3)cc12 [Example I-777]
37 | < 100 nM | COc1ccccc1-c1cc(C2=CCCN(C(=O)CCn3ccnn3)C2)c(F)c2[nH]c(C(=O)N3CCN(c4cc5ccccc5nc4O)CC3)cc12 [Example I-952]
38 | < 100 nM | COC(=O)c1cc(N2CCN(C(=O)c3cc4c(-c5ccccc5OC)cc(C5=CCCN(C(=O)CCn6ccnn6)C5)c(F)c4[nH]3)CC2)cn1C [Example I-1004]
39 | < 100 nM | CCc1nc(C)ccc1-c1cc(C(=O)N2CCN(c3ncc(F)cc3OC)CC2)cc2cc(C3=CCCN(C(=O)CC(=O)O)C3)n(CC)c12 [Example I-794]
40 | < 100 nM | CCc1cc(C)ncc1-c1cc(C2=CCCN(C(=O)CCn3ccnn3)C2)c(F)c2[nH]c(C(=O)N3CCN(c4ccc(F)cc4OC)CC3)cc12 [Example I-739]
41 | < 100 nM | COc1cc(F)cnc1N1CCN(C(=O)c2cc3c(-c4ccc(CN5CCOCC5)nc4)cc(C4=CCCN(C(=O)CCn5ccnn5)C4)c(F)c3[nH]2)CC1 [Example I-1137]
42 | < 100 nM | COc1ccccc1-c1cc(C2=CCCN(C(=O)CCn3ccnn3)C2)c(F)c2[nH]c(C(=O)N3CCN(c4ncc(F)c(F)c4OC)CC3)cc12 [Example I-510]
43 | < 100 nM | CCc1ccccc1-c1cc(C2=CCCN(C(=O)CCn3ccnn3)C2)c(F)c2[nH]c(C(=O)N3CCN(c4ncccc4OC)CC3)cc12 [Example I-562]
44 | < 100 nM | COc1ccccc1-c1cc(C2=CCCN(C(=O)CCn3ccnn3)C2)c(F)c2[nH]c(C(=O)N3CCN(c4ccnnc4O)CC3)cc12 [Example I-908]
45 | > 100000 nM | CCc1ccc(-c2cc(C3=CCCN(C(=O)CCn4ccnn4)C3)c(F)c3[nH]c(C(=O)N4Cc5cnn(CC)c5C4)cc23)c(C)n1 [Example I-761]
46 | > 100000 nM | CCOc1ccccc1-c1cc(C2=CCCN(C(=O)CCn3ccnn3)C2)c(F)c2[nH]c(C(=O)N3CCN(c4ncccc4OC)CC3)cc12 [Example I-412]
47 | < 100 nM | COc1cc(F)cnc1N1CCN(C(=O)c2cc3c(-c4cccc(C)c4)cc(C4=CCCN(C(=O)CCn5ccnn5)C4)c(F)c3[nH]2)CC1 [Example I-673]
48 | > 100000 nM | CCc1nc(C)ccc1-c1cc(C(=O)N2CCN(C3CC3)CC2)cc2c(F)c(C3=CCCN(C(=O)CCn4ccnn4)C3)n(CC3CC3)c12 [Example I-548]
49 | < 100 nM | CCc1cc(C)ncc1-c1cc(C2=CCCN(C(=O)CCn3ccnn3)C2)c(F)c2[nH]c(C(=O)N3CCN(c4nccnc4OC)CC3)cc12 [Example I-519]
50 | 100 to 1000 nM | COc1cccc(F)c1-c1cc(C2=CCCN(C(C)=O)C2)c(F)c2cc(C(=O)N(C)C)oc12 [Example I-1105]
51 | 100 to 1000 nM | COc1ccccc1/C=C/c1cc(C2=CCCN(C(=O)CCn3ccnn3)C2)c(F)c2[nH]c(C(=O)N3CCN(c4ncc(F)cc4OC)CC3)cc12 [Example I-1130]
52 | < 100 nM | COc1ccccc1-c1cc(C2=CCCN(C(=O)CCn3ccnn3)C2)c(F)c2[nH]c(C(=O)N3CCN(c4ccccc4)CC3)cc12 [Example I-419]
53 | < 100 nM | COc1cc(F)cnc1N1CCN(C(=O)c2cc3c(-c4ccc(OC5CCOCC5)cc4)cc(C4=CCCN(C(=O)CCn5ccnn5)C4)c(F)c3[nH]2)CC1 [Example I-1111]
54 | < 100 nM | COc1ccccc1-c1cc(C2=CCCN(C(=O)CCn3ccnn3)C2)c(F)c2[nH]c(C(=O)N3CCN(c4ncccn4)CC3)cc12 [Example I-863]
55 | < 100 nM | Cc1c[nH]c2ncc(-c3cc(C4=CCCN(C(=O)CCn5ccnn5)C4)c(F)c4cc(C(=O)N(C)C)oc34)cc12 [Example I-1100]

Row | Compound | IC50
56 | COc1cccnc1N1CCN(C(=O)c2cc3c(-n4ccccc4=O)cc(C4=CCCN(C(=O)CCn5ccnn5)C4)c(F)c3[nH]2)CC1 [Example I-807, 1-(6-(1-(3-(1H-1,2,3-triazol-1-yl)propanoyl)-1,2,5,6-tetrahydropyridin-3-yl)-7-fluoro-2-(4-(3-methoxypyridin-2-yl)piperazine-1-carbonyl)-1H-indol-4-yl)pyridin-2(1H)-one] | < 100 nM
